# Where a name gives a salt, the structure may show the parent alone.
# Target: T1, Calcium sensing receptor (hCaSR) (Homo sapiens, UniProt P41180)
# T1 construct: expressed in transfected cells
# T1 sequence (P41180 20-1078): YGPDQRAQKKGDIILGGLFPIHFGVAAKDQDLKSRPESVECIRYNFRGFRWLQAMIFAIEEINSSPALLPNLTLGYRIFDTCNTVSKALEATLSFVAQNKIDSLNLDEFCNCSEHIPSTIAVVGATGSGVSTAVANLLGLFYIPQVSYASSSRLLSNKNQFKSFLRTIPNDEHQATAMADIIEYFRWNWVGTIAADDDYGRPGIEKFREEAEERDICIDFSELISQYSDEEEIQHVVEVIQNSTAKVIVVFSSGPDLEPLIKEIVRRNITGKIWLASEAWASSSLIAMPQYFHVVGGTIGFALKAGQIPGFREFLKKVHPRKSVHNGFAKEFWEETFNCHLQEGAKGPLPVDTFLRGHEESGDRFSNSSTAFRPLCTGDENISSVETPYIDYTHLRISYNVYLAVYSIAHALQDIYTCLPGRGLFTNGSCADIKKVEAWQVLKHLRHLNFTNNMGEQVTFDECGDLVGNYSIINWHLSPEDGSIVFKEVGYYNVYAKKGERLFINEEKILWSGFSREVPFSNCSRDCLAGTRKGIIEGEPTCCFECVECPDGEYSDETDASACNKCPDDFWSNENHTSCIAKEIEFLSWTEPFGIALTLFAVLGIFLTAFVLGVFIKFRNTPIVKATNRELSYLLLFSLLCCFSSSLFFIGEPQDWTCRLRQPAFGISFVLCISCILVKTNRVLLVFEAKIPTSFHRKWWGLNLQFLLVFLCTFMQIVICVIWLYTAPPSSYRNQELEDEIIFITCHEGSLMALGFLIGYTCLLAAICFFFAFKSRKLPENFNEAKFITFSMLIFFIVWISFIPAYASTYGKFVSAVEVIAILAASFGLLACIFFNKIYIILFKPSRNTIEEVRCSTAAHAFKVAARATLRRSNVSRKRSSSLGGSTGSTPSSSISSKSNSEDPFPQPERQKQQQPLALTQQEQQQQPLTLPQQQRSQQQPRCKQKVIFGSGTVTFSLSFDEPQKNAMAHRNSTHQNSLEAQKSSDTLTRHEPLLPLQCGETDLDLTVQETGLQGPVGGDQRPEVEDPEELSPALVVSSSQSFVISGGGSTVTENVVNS
# Assay: In-vitro assay of calcimimetics through modulation of calcium sensing receptor: increase in intracellular calcium [Ca2+]i, FLIPR
# Assay type: cell-based
# Conditions: stably transfected HEK293 cells expressing hCaSR; Fluo4NW dye; 0.3 mM CaCl2; 8-point assay; read-out: EC50 Range
# Procedure: In-Vitro Assay Method of Calcimemtics Through Modulation of Calcium Sensing Receptor (CaSR):
# The ability of the compounds to modulate Calcium sensing receptor is determined by measuring an increase in intracellular calcium [Ca^2+]i. Stably transfected HEK293 cells expressing hCaSR_pTriEx-3 hygro vector are developed. Cells are grown overnight on a 96-well plate to 80% confluency in Ham's F12 containing 20% FBS at 37° C., 5% CO2. Subsequently, cells are washed extensively with 20 mM HEPES buffer containing 126 mM NaCl, 1 mM MgCl2 and 4 mM KCl to remove serum components that might interfere with the assay. Cells are loaded with calcium sensing Fluo4NW dye in HEPES base buffer containing 0.1% BSA and 1 mg/ml glucose for 30 minutes to measure changes in intracellular calcium. The activities of the compounds are measured in FLIPR using 0.3 mM CaCl2 in 20 mM HEPES base buffer. The effectiveness of the compound to modulate receptor activity is determined by calculating the EC50 responses for that compound in an 8-point assay and plotted using GraphPad Prism 5.
row,EC50,Compound
1,50 to 200 nM,"COC(=O)c1ccc(N2CC(CN[C@H](C)c3cccc4ccccc34)Oc3ccccc32)cc1 (single isomer, unassigned) [Example 2a, hydrochloride]"
2,20 to 50 nM,"COC(=O)c1ccc(N2CC(CN[C@H](C)c3cccc4ccccc34)Oc3ccccc32)cc1 (single isomer, unassigned) [Example 2b, hydrochloride]"
3,20 to 50 nM,"CCOC(=O)c1c(C)ccc(N2CC(CN[C@H](C)c3cccc4ccccc34)Oc3ccccc32)c1C (single isomer, unassigned) [Example 24b]"
4,20 to 50 nM,"COC(=O)c1cc(N2CC(CN[C@H](C)c3cccc4ccccc34)Oc3ccccc32)ccc1C (single isomer, unassigned) [Example 31a]"
5,< 20 nM,"COC(=O)c1cc(N2CC(CN[C@H](C)c3cccc4ccccc34)Oc3ccccc32)ccc1C (single isomer, unassigned) [Example 31b]"
6,50 to 200 nM,"COc1ccc(C(=O)O)cc1N1CC(CN[C@H](C)c2cccc3ccccc23)Oc2ccccc21 (single isomer, unassigned) [Example 55a, hydrochloride]"
7,20 to 50 nM,"Cc1c(C(=O)O)cccc1N1CC(CN[C@H](C)c2cccc3ccccc23)Oc2ccccc21 (single isomer, unassigned) [Example 58a, hydrochloride]"
8,20 to 50 nM,"C[C@@H](NCC1CN(c2ccc(C(F)(F)F)c(C(=O)O)c2)c2ccccc2O1)c1cccc2ccccc12 (single isomer, unassigned) [Example 60a, hydrochloride]"
9,50 to 200 nM,"Cc1cc(C(=O)O)cc(N2CC(CN[C@H](C)c3cccc4ccccc34)Oc3ccccc32)c1 (single isomer, unassigned) [Example 62a, hydrochloride]"
10,< 20 nM,"C[C@@H](NCC1CN(c2ccc(C(=O)O)c(C(F)(F)F)c2)c2ccccc2O1)c1cccc2ccccc12 (single isomer, unassigned) [Example 64b, hydrochloride]"
11,20 to 50 nM,"C[C@@H](NCC1CN(c2ccc(O)c(C(=O)O)c2)c2ccccc2O1)c1cccc2ccccc12 (single isomer, unassigned) [Example 66a, hydrochloride]"
12,< 20 nM,"C[C@@H](NCC1CN(c2ccc(O)c(C(=O)O)c2)c2ccccc2O1)c1cccc2ccccc12 (single isomer, unassigned) [Example 66b, hydrochloride]"
13,50 to 200 nM,"COc1ccc(N2CC(CN[C@H](C)c3cccc4ccccc34)Oc3ccccc32)cc1C(=O)O (single isomer, unassigned) [Example 67b, hydrochloride]"
14,50 to 200 nM,"C[C@@H](NCC1CN(c2cccc(CCC(=O)O)c2)c2ccccc2O1)c1cccc2ccccc12 (single isomer, unassigned) [Example 68b, hydrochloride]"
15,< 20 nM,"Cc1ccc(N2CC(CN[C@H](C)c3cccc4ccccc34)Oc3ccccc32)c(C)c1C(=O)O (single isomer, unassigned) [Example 70b, hydrochloride]"
16,< 20 nM,"Cc1ccc(N2CC(CN[C@H](C)c3cccc4ccccc34)Oc3ccccc32)cc1C(=O)O (single isomer, unassigned) [Example 71b, hydrochloride]"
17,< 20 nM,"Cc1cc(N2CC(CN[C@H](C)c3cccc4ccccc34)Oc3ccccc32)ccc1C(=O)O (single isomer, unassigned) [Example 73b, hydrochloride]"
18,50 to 200 nM,"C[C@@H](NCC1CN(c2ccc(Cl)c(C(=O)O)c2)c2ccccc2O1)c1cccc2ccccc12 (single isomer, unassigned) [Example 75b, hydrochloride]"
19,< 20 nM,"Cc1ccc(N2CC(CN[C@H](C)c3cccc4ccccc34)Oc3ccccc32)cc1OCC(=O)O (single isomer, unassigned) [Example 76a, hydrochloride]"

row,EC50,Compound
1,50 to 200 nM,"Cc1ccc(N2CC(CN[C@H](C)c3cccc4ccccc34)Oc3ccccc32)cc1OC(C)(C)C(=O)O (single isomer, unassigned) [Example 77a, hydrochloride]"
2,< 20 nM,"Cc1ccc(N2CC(CN[C@H](C)c3cccc4ccccc34)Oc3ccccc32)cc1C(=O)NCC(=O)O (single isomer, unassigned) [Example 79b, hydrochloride]"
3,50 to 200 nM,"Cc1ccc(N2CC(C)(CN[C@H](C)c3cccc4ccccc34)Oc3ccccc32)cc1C(=O)O (single isomer, unassigned) [Example 86a, hydrochloride]"
4,20 to 50 nM,"Cc1ccc(N2C(=O)C(CN[C@H](C)c3cccc4ccccc34)Oc3ccccc32)cc1C(=O)O (single isomer, unassigned) [Example 87b, hydrochloride]"
5,< 20 nM,"Cc1ccc(N2CC(CCN[C@H](C)c3cccc4ccccc34)Oc3ccccc32)cc1C(=O)O (single isomer, unassigned) [Example 133b, hydrochloride]"
6,20 to 50 nM,"Cc1ccc(N2CC(CCN[C@H](C)c3cccc4ccccc34)Oc3c(F)cccc32)cc1C(=O)O (single isomer, unassigned) [Example 159a, hydrochloride]"
7,< 20 nM,"C[C@@H](NCCC1CN(c2cccc(C(=O)O)c2)c2cccc(F)c2O1)c1cccc2ccccc12 (single isomer, unassigned) [Example 160a, hydrochloride]"
8,< 20 nM,"C[C@@H](NCCC1CN(c2ccc(OCC(=O)O)cc2)c2ccc(F)cc2O1)c1cccc2ccccc12 (single isomer, unassigned) [Example 161a, hydrochloride]"
9,< 20 nM,"C[C@@H](NCCC1CN(c2ccc(OCC(=O)O)cc2)c2cccc(F)c2O1)c1cccc2ccccc12 (single isomer, unassigned) [Example 164a, hydrochloride]"
10,< 20 nM,"Cc1ccc(N2CC(CCN[C@H](C)c3cccc4ccccc34)Oc3ccc(F)cc32)cc1C(=O)O (single isomer, unassigned) [Example 166a, hydrochloride]"
11,< 20 nM,"C[C@@H](NCCC1CN(c2cccc(C(=O)O)c2)c2cc(F)ccc2O1)c1cccc2ccccc12 (single isomer, unassigned) [Example 167a]"
12,20 to 50 nM,"C[C@@H](NCCC1CN(c2cccc(C(=O)O)c2)c2cc(F)ccc2O1)c1cccc2ccccc12 (single isomer, unassigned) [Example 167b]"
13,< 20 nM,"C[C@@H](NCCC1CN(c2ccc(OCC(=O)O)cc2)c2cc(F)ccc2O1)c1cccc2ccccc12 (single isomer, unassigned) [Example 168a]"
14,< 20 nM,"C[C@@H](NCCC1CN(c2cccc(OCC(=O)O)c2)c2cc(F)ccc2O1)c1cccc2ccccc12 (single isomer, unassigned) [Example 169a, hydrochloride]"
15,< 20 nM,"C[C@@H](NCCC1CN(c2cccc(OCC(=O)O)c2)c2c(F)cccc2O1)c1cccc2ccccc12 (single isomer, unassigned) [Example 171a, hydrochloride]"
16,< 20 nM,"C[C@@H](NCCC1CN(c2ccc(OCC(=O)O)cc2)c2c(F)cccc2O1)c1cccc2ccccc12 (single isomer, unassigned) [Example 172a, hydrochloride]"
17,50 to 200 nM,"C[C@@H](NCC1CN(c2ccc(C(=O)O)cc2)c2ccccc2O1)c1cccc2ccccc12 (stereo partly drawn) [Example 6, 4-(2-((((R)-1-(Naphthalen-1-yl)ethyl)amino)methyl)-2H-benzo[b][1,4]oxazin-4(3H)-yl)benzoic acid hydrochloride]"
18,20 to 50 nM,"C[C@@H](NCC1CN(c2cccc(C(=O)O)c2)c2ccccc2O1)c1cccc2ccccc12 (stereo partly drawn) [Example 41, 3-(2-((((R)-1-(Naphthalen-1-yl)ethyl)amino)methyl)-2H-benzo[b][1,4]oxazin-4(3H)-yl)benzoic acid hydrochloride]"
19,50 to 200 nM,"C[C@@H](NCC1CN(c2ccc(CCC(=O)O)cc2)c2ccccc2O1)c1cccc2ccccc12 (stereo partly drawn) [Example 48, 3-(4-(2-((((R)-1-(naphthalen-1-yl)ethyl)amino)methyl)-2H-benzo [b][1,4]oxazin-4(3H)-yl)phenyl)propanoic acid]"

# From patent publication US9464063B2, “Benzo [B] [1,4] oxazin derivatives as calcium sensing receptor modulators” (LUPIN ATLANTIS HOLDINGS SA, priority 2011, dated 2016)
